Reference: PMC9496819 (Cancers, 2022)

Tests used:
OVCAR8 PTX R P cells = experiment: Presto Blue cell viability assay, single drugs and Paclitaxel combinations (Chou–Talalay, Bliss, HSA analysis); settings: for Cellular viability (%) Media: alone or combined
Description: (§1) To determine the effect of single and combination drug treatments on the cellular viability of cell lines, a resazurin-based assay—Presto Blue (PB)—was performed. Briefly, 5 × 10^3 cells/well were seeded into a 96-well plate in complete media, incubated at 37 °C and 5% CO2 and allowed to adhere overnight prior to drug exposure. After 24 h, cells were exposed to increasing concentrations of drugs and incubated under the same conditions. After 48 h, culture medium was removed, and 50 μL/well of PrestoBlue^TM Cell Viability Reagent 1× (ThermoFisher Scientific) was added. Cells were incubated for 45 min, protected from light, at 37 °C and 5% CO2.
(§2) The IC50 values were first obtained for each drug alone for OVCAR8, OVCAR8 PTX R P and HOSE6.3 cell lines. […] A mutually exclusive model, assuming that drugs act through […] mechanisms, was used for this analysis. […] The CI is a quantitative representation of pharmacological interactions (i.e., CI < 1, synergism; =1, additive interactions; and >1, antagonism), plotted on y-axis as a function of effect level (Fa) on the x-axis to assess drug synergism between drug combinations. Additionally, we estimated the expected drug combination responses based on the Bliss Independence and Highest Single Agent (HSA) reference models using SynergyFinder 2.0 Software. Positive and negative synergy score values denote synergy and antagonism, respectively. The cNMF algorithm implemented in SynergyFinder 2.0 was used for estimation of outlier measurements.

OVCAR8 cells = experiment: as above; settings: for Cellular viability (%) Media: OVCAR8, 48 h, alone or combined
Description: as §1, §2

HOSE6.3 cells = experiment: Presto Blue cell viability assay in non-tumoral cells, single drugs and Paclitaxel combinations (Chou–Talalay, Bliss, HSA analysis); settings: for Cellular viability (%) Media: HOSE6.3, 48 h, alone or combined; for IC50 / IC50 (in words): 48 h; for IC50 (in words): considered concentration ranges
Description: as §1, §2

[1] = as above; settings: human, HOSE6.3 cells (non-tumoral)
Description: as §1, §2

[2] = OVCAR8 PTX R P, 48 h, 0.25 x IC50 of each drug
[3] = OVCAR8 PTX R P, 48 h, 0.5 x IC50 of each drug
[4] = OVCAR8 PTX R P, 48 h, 2 x IC50 of each drug
[5] = OVCAR8 PTX R P, 48 h, IC50 of each drug

Ivermectin
Cellular viability (%) Media (OVCAR8 PTX R P cells; [2]): 81.152%
Cellular viability (%) Media (OVCAR8 PTX R P cells; [3]): 65.026%
Cellular viability (%) Media (OVCAR8 PTX R P cells; [4]): 0.966%
Cellular viability (%) Media (OVCAR8 PTX R P cells; OVCAR8 PTX R P, 48 h, 4 x IC50 of each drug): 1.370%
Cellular viability (%) Media (OVCAR8 PTX R P cells; [5]): 47.496%
IC50 (OVCAR8 PTX R P cells; OVCAR8 PTX R P, single agent, 48 h): 15.5 ± 1.86 µM
Cellular viability (%) Media (OVCAR8 cells; 0.25 x IC50 of each drug): 77.004%
Cellular viability (%) Media (OVCAR8 cells; 0.5 x IC50 of each drug): 69.934%
Cellular viability (%) Media (OVCAR8 cells; 2 x IC50 of each drug): 0.759%
Cellular viability (%) Media (OVCAR8 cells; 4 x IC50 of each drug): 0.867%
Cellular viability (%) Media (OVCAR8 cells; IC50 of each drug): 46.412%
IC50 (OVCAR8 cells; OVCAR8, single agent, 48 h): 16 ± 2.91 µM
Cellular viability (%) Media (HOSE6.3 cells; 0.5 x IC50 of each drug): 99.694%
Cellular viability (%) Media (HOSE6.3 cells; 2 x IC50 of each drug): 0.539%
Cellular viability (%) Media (HOSE6.3 cells; 4 x IC50 of each drug): 0.000%
Cellular viability (%) Media (HOSE6.3 cells; IC50 of each drug): 53.462%
IC50 (HOSE6.3 cells; HOSE6.3, single agent): 12.6 ± 2.19 µM

O=C(O)C[C@H](O)C[C@H](O)/C=C/c1c(C2CC2)nc2ccccc2c1-c1ccc(F)cc1 [Pitavastatin]
IC50 (OVCAR8 PTX R P cells; Homo sapiens, OVCAR-8, 48 h): 0.85 ± 0.142 µM
Cellular viability (%) Media (OVCAR8 PTX R P cells; [2]): 59.998%
Cellular viability (%) Media (OVCAR8 PTX R P cells; [3]): 50.426%
Cellular viability (%) Media (OVCAR8 PTX R P cells; [4]): 28.330%
Cellular viability (%) Media (OVCAR8 PTX R P cells; [5]): 45.406%
IC50 (OVCAR8 cells; Homo sapiens, OVCAR-8, 48 h): 0.801 ± 0.061 µM
Cellular viability (%) Media (OVCAR8 cells; 0.25 x IC50 of each drug): 61.378%
Cellular viability (%) Media (OVCAR8 cells; 0.5 x IC50 of each drug): 51.912%
Cellular viability (%) Media (OVCAR8 cells; 2 x IC50 of each drug): 27.970%
Cellular viability (%) Media (OVCAR8 cells; IC50 of each drug): 45.624%
viability at 48 h, 0.25 x IC50 [1]: 81.8%
viability at 48 h, 0.5 x IC50 [1]: 76.5%
viability at 48 h, 1 x IC50 [1]: 68.5%
viability at 48 h, 2 x IC50 [1]: 65.9%
viability at 48 h, 4 x IC50 [1]: 61.4%
IC50 (in words) (HOSE6.3 cells; HOSE6.3, single agent): not obtaining IC50 values in the considered concentration ranges

CCC(C)n1ncn(-c2ccc(N3CCN(c4ccc(OCC5COC(Cn6cncn6)(c6ccc(Cl)cc6Cl)O5)cc4)CC3)cc2)c1=O (stereo not drawn) [Itraconazole]
IC50 (OVCAR8 PTX R P cells; Homo sapiens, OVCAR-8, 48 h): 35.6 ± 0.48 µM
IC50 (OVCAR8 cells; Homo sapiens, OVCAR-8, 48 h): 39.1 ± 3.38 µM
IC50 (HOSE6.3 cells; Homo sapiens): 38.6 ± 5.11 µM

NCCCC(O)(P(=O)(O)O)P(=O)(O)O [Alendronate]
IC50 (OVCAR8 PTX R P cells; Homo sapiens, OVCAR-8, 48 h): 196 ± 20.2 µM
IC50 (OVCAR8 cells; Homo sapiens, OVCAR-8, 48 h): 219 ± 13.6 µM
IC50 (in words) (HOSE6.3 cells; HOSE6.3, single agent): not obtaining IC50 values in the considered concentration ranges

CN(C)C(=N)N=C(N)N [Metformin]
IC50 (OVCAR8 PTX R P cells; Homo sapiens, OVCAR-8, 48 h): 1460 ± 193 µM
IC50 (OVCAR8 cells; Homo sapiens, OVCAR-8, 48 h): 1500 ± 169 µM
IC50 (in words) (HOSE6.3 cells; HOSE6.3, single agent): not obtaining IC50 values in the considered concentration ranges
